Test results: patent US10617693B2, “Methods of treating and/or preventing actinic keratosis” (Athenex, Inc., priority 2017, dated 2020)

System: subjects with AK on the face or scalp
Assay: Phase 2a study KX01-AK-002: local skin reactions (grade 0 not present to 4 worst) and adverse events, 0.5 mg KX-01 on 25 cm^2
Assay type: in vivo, human
From the text: An ongoing Phase 2a, open-label, multicenter, activity and safety study of KX-01 administered topically in subjects with AK on the face or scalp is described herein. […] Secondary objectives are to assess the activity of KX-01 administered topically during Days 1-57 based on reduction of AK lesion counts from baseline, assess the safety and tolerability and pharmacokinetics, and contrast the dose regimens (5-day treatment with 3-day treatment) in terms of activity and safety in subjects with AK on the face or scalp. This uncontrolled, nonrandomized trial is being conducted at 16 investigational sites in the United States. Enrollment is sequential for 2 cohorts of approximately 80 subjects each. Enrollment is closed for Cohort 1 and ongoing for Cohort 2. The two treatment cohorts are summarized below: • Cohort 1: 0.5 mg KX-01 administered topically to a contiguous treatment area of 25 cm^2 with 4-8 clinically typical AK lesions for 5 consecutive days • Cohort 2: 0.5 mg KX-01 administered topically to a contiguous treatment area of 25 cm^2 with 4-8 clinically typical AK lesions for 3 consecutive days
0.5 mg KX-01 is administered topically to an area of 25 cm^2 on the face or scalp by site staff on treatment days. […] AK lesion counts are recorded at baseline, days 8, 15, 29, and 57. […] Standardized photography of treatment area is performed at baseline, day 8 and day 57. Plasma samples are being collected at preplanned time points on days 1 and 5 for Cohort 1, and on days 1 and 3 for Cohort 2.
Absence or presence of hyperpigmentation, hypopigmentation and scarring are also assessed. Application site reactions not classified as LSRs are reported as AEs. […] LSRs and AEs are reported separately. All LSRs, pigmentation, and scarring in the treatment area will be followed to resolution or stabilization.
The range of possible composite scores is 0-24.
The Phase 2a trial described in Example 2a was completed with 84 eligible subjects enrolled in each of two cohorts: one cohort was subjected to the treatment for 5 consecutive days, and the other cohort was subjected to the treatment for 3 consecutive days. The results are described below and in FIG. 5.

## O=C(Cc1ccc(-c2ccc(OCCN3CCOCC3)cc2)cn1)NCc1ccccc1 [KX-01]
3-day, N = 84
  Crusting maximal post-baseline grade 0, subjects (%): 58 (69%)
  Crusting maximal post-baseline grade 1, subjects (%): 16 (19%)
  Crusting maximal post-baseline grade 2, subjects (%): 9 (11%)
  Crusting maximal post-baseline grade 3, subjects (%): 1 (1%)
  Crusting maximal post-baseline grade 4, subjects (%): 0 (0%)
  Erosion/Ulceration maximal post-baseline grade 0, subjects (%): 79 (94%)
  Erosion/Ulceration maximal post-baseline grade 1, subjects (%): 5 (6%)
  Erosion/Ulceration maximal post-baseline grade 2, subjects (%): 0 (0%)
  Erosion/Ulceration maximal post-baseline grade 3, subjects (%): 0 (0%)
  Erosion/Ulceration maximal post-baseline grade 4, subjects (%): 0 (0%)
  Erythema maximal post-baseline grade 0, subjects (%): 30 (36%)
  Erythema maximal post-baseline grade 1, subjects (%): 22 (26%)
  Erythema maximal post-baseline grade 2, subjects (%): 26 (31%)
  Erythema maximal post-baseline grade 3, subjects (%): 6 (7%)
  Erythema maximal post-baseline grade 4, subjects (%): 0 (0%)
  Flaking/Scaling maximal post-baseline grade 0, subjects (%): 39 (46%)
  Flaking/Scaling maximal post-baseline grade 1, subjects (%): 18 (21%)
  Flaking/Scaling maximal post-baseline grade 2, subjects (%): 19 (23%)
  Flaking/Scaling maximal post-baseline grade 3, subjects (%): 8 (10%)
  Flaking/Scaling maximal post-baseline grade 4, subjects (%): 0 (0%)
  Swelling maximal post-baseline grade 0, subjects (%): 76 (90%)
  Swelling maximal post-baseline grade 1, subjects (%): 8 (10%)
  Swelling maximal post-baseline grade 2, subjects (%): 0 (0%)
  Swelling maximal post-baseline grade 3, subjects (%): 0 (0%)
  Swelling maximal post-baseline grade 4, subjects (%): 0 (0%)
  Vesiculation/Pustulation maximal post-baseline grade 0, subjects (%): 83 (99%)
  Vesiculation/Pustulation maximal post-baseline grade 1, subjects (%): 0 (0%)
  Vesiculation/Pustulation maximal post-baseline grade 2, subjects (%): 1 (1%)
  Vesiculation/Pustulation maximal post-baseline grade 3, subjects (%): 0 (0%)
  Vesiculation/Pustulation maximal post-baseline grade 4, subjects (%): 0 (0%)
5-day treatment, cross-study
  Local safety profile compared to Picato: more benign local safety profile
5-day, N = 84
  Crusting maximal post-baseline grade 0, subjects (%): 51 (61%)
  Crusting maximal post-baseline grade 1, subjects (%): 25 (30%)
  Crusting maximal post-baseline grade 2, subjects (%): 8 (10%)
  Crusting maximal post-baseline grade 3, subjects (%): 0 (0%)
  Crusting maximal post-baseline grade 4, subjects (%): 0 (0%)
  Erosion/Ulceration maximal post-baseline grade 0, subjects (%): 71 (85%)
  Erosion/Ulceration maximal post-baseline grade 1, subjects (%): 12 (14%)
  Erosion/Ulceration maximal post-baseline grade 2, subjects (%): 1 (1%)
  Erosion/Ulceration maximal post-baseline grade 3, subjects (%): 0 (0%)
  Erosion/Ulceration maximal post-baseline grade 4, subjects (%): 0 (0%)
  Erythema maximal post-baseline grade 0, subjects (%): 15 (18%)
  Erythema maximal post-baseline grade 1, subjects (%): 16 (19%)
  Erythema maximal post-baseline grade 2, subjects (%): 35 (42%)
  Erythema maximal post-baseline grade 3, subjects (%): 17 (20%)
  Erythema maximal post-baseline grade 4, subjects (%): 1 (1%)
  Flaking/Scaling maximal post-baseline grade 0, subjects (%): 33 (39%)
  Flaking/Scaling maximal post-baseline grade 1, subjects (%): 10 (12%)
  Flaking/Scaling maximal post-baseline grade 2, subjects (%): 24 (29%)
  Flaking/Scaling maximal post-baseline grade 3, subjects (%): 16 (19%)
  Flaking/Scaling maximal post-baseline grade 4, subjects (%): 1 (1%)
  Swelling maximal post-baseline grade 0, subjects (%): 66 (79%)
  Swelling maximal post-baseline grade 1, subjects (%): 16 (19%)
  Swelling maximal post-baseline grade 2, subjects (%): 1 (1%)
  Swelling maximal post-baseline grade 3, subjects (%): 1 (1%)
  Swelling maximal post-baseline grade 4, subjects (%): 0 (0%)
  Vesiculation/Pustulation maximal post-baseline grade 0, subjects (%): 80 (95%)
  Vesiculation/Pustulation maximal post-baseline grade 1, subjects (%): 4 (5%)
  Vesiculation/Pustulation maximal post-baseline grade 2, subjects (%): 0 (0%)
  Vesiculation/Pustulation maximal post-baseline grade 3, subjects (%): 0 (0%)
  Vesiculation/Pustulation maximal post-baseline grade 4, subjects (%): 0 (0%)
5-day, interim N = 67
  Crusting maximal post-baseline grade 0, subjects (%): 41 (61%)
  Crusting maximal post-baseline grade 1, subjects (%): 20 (30%)
  Crusting maximal post-baseline grade 2, subjects (%): 6 (9%)
  Crusting maximal post-baseline grade 3, subjects (%): 0 (0%)
  Crusting maximal post-baseline grade 4, subjects (%): 0 (0%)
  Erosion/Ulceration maximal post-baseline grade 0, subjects (%): 57 (85%)
  Erosion/Ulceration maximal post-baseline grade 1, subjects (%): 9 (13%)
  Erosion/Ulceration maximal post-baseline grade 2, subjects (%): 1 (1%)
  Erosion/Ulceration maximal post-baseline grade 3, subjects (%): 0 (0%)
  Erosion/Ulceration maximal post-baseline grade 4, subjects (%): 0 (0%)
  Erythema maximal post-baseline grade 0, subjects (%): 7 (10%)
  Erythema maximal post-baseline grade 1, subjects (%): 16 (24%)
  Erythema maximal post-baseline grade 2, subjects (%): 32 (48%)
  Erythema maximal post-baseline grade 3, subjects (%): 12 (18%)
  Erythema maximal post-baseline grade 4, subjects (%): 0 (0%)
  Flaking/Scaling maximal post-baseline grade 0, subjects (%): 20 (30%)
  Flaking/Scaling maximal post-baseline grade 1, subjects (%): 14 (21%)
  Flaking/Scaling maximal post-baseline grade 2, subjects (%): 20 (30%)
  Flaking/Scaling maximal post-baseline grade 3, subjects (%): 13 (19%)
  Flaking/Scaling maximal post-baseline grade 4, subjects (%): 0 (0%)
  Swelling maximal post-baseline grade 0, subjects (%): 53 (79%)
  Swelling maximal post-baseline grade 1, subjects (%): 12 (18%)
  Swelling maximal post-baseline grade 2, subjects (%): 1 (1%)
  Swelling maximal post-baseline grade 3, subjects (%): 1 (1%)
  Swelling maximal post-baseline grade 4, subjects (%): 0 (0%)
  Vesiculation/Pustulation maximal post-baseline grade 0, subjects (%): 64 (96%)
  Vesiculation/Pustulation maximal post-baseline grade 1, subjects (%): 3 (4%)
  Vesiculation/Pustulation maximal post-baseline grade 2, subjects (%): 0 (0%)
  Vesiculation/Pustulation maximal post-baseline grade 3, subjects (%): 0 (0%)
  Vesiculation/Pustulation maximal post-baseline grade 4, subjects (%): 0 (0%)
Cohort 1 (5-day)
  Day from which LSRs were generally observable: 3 days
Cohort 1 (5-day), 67 subjects with day 57 visit
  Subjects with erosion/ulceration: 9
